Assay results taken from article PMC11207065, “Abietane Diterpenes from Medusantha martiusii and Their Anti-Neuroinflammatory Activity” (Molecules, 2024).

Key:
Assay type in all cases: cell-based
[1] = test system: nitric oxide production in LPS and IFN-γ-stimulated BV2 cells; test: Nitric oxide (nitrite, Griess method) measurement in LPS and IFN-γ-stimulated BV2 cells; conditions: 24 h; for Effect on nitrite (NO) levels versus control group: LPS and IFN-γ-stimulated BV2 cells; for IC50: Mus musculus, BV-2, LPS (500 ng/mL) and IFN-γ (5 ng/mL)-stimulated BV2 cells, 3.125–25 µM, mean ± SEM, read-out: IC50 on nitric oxide production inhibition
Protocol: (§1) To determine the NO and TNF-α levels, BV2 cells were seeded in 96-well plates (1 × 10^6 cells/mL) in RPMI medium supplemented with 10% FBS and 1% penicillin-streptomycin in a 5% CO2 incubator at 37 °C. After four hours, the cells were exposed to LPS (500 ng/mL, Sigma Aldrich) and IFN-γ (5 ng/mL, Thermo Fisher) in the absence or presence of compounds 1 to 7 at a final concentration of 12.5 µM (for NO and TNF-α measurement) or 3.125–25 µM (to calculate the IC50 values on NO production inhibition), in five replicates. Quercetin (20 µM) was used as a positive control. After 24 h, cell-free supernatants were collected for NO quantification using the Griess method or stored at −80 °C for cytokine concentration determination. The TNF-α concentrations in the BV2 cell culture supernatants were assessed via enzyme-linked immunosorbent assay (ELISA) with an Invitrogen kit (Thermo Fisher, Viena, Austria).

[2] = test system: TNF-α release from LPS and IFN-γ-stimulated BV2 cells; test: TNF-α measurement (ELISA) in LPS and IFN-γ-stimulated BV2 cells; conditions: 12.5 µM, 24 h
Protocol: as §1

[3] = Cell viability (MTT assay) in BV2 cells; conditions: mouse, BV2 microglial cells, mean ± SEM (n = 5)
Protocol: The cytotoxicity of compounds 1–7 was evaluated using the MTT (3-(4,5-dimethylthiazol-2-yl)-2,5-diphenyltetrazolium bromide) assay. The microglial BV2 cell line was obtained from the Rio de Janeiro Cell Bank (BCRJ), Brazil. The cells were cultured in Roswell Park Memorial Institute medium (RPMI; Sigma Aldrich, St. Louis, MO, USA) supplemented with 10% fetal bovine serum (FBS; Gibco, Grand Island, NY, USA) and 1% penicillin-streptomycin (Sigma Aldrich) at 37 °C with 5% CO2. Cells were seeded into 96-well plates at 1 × 10^5 cells/mL and incubated overnight. After that, the cells were incubated with compounds 1 to 7 (12.5, 25, or 50 μM) in five replicates for 24 h. Then, 110 μL of the supernatant were removed, and 10 μL of MTT solution (5 mg/mL) (Sigma Aldrich, St. Louis, MO, USA) were added. The plates were further incubated for four hours, followed by the addition of sodium dodecyl sulfate (SDS) (100 µL/well) to dissolve the formazan. Optical densities were measured using a spectrophotometer (BioTek Instruments microplate reader, Sinergy HT, Winooski, VT, USA) at a wavelength of 570 nm.

Row | SMILES | Effect on nitrite (NO) levels versus control group ([1]; 12.5 µM) | IC50 [1] [µM] | Effect on TNF-α levels versus control group [2] | viability at 24 h, 12.5 µM [3] [%] | viability at 24 h, 25 µM [3] [%] | viability at 24 h, 50 µM [3] [%] | Effect on nitrite (NO) levels versus control group ([1]; 20 µM (positive control))
1 | CC(C)C1=CC(=O)C2=C(C1=O)C(O)CC1C2(C)CC(O)C(O)C1(C)C (stereo not shown) [Compound 1, Medusanthol A] | significantly reduced nitrite levels | 3.12 ± 0.75 | significantly reduced TNF-α levels | 88 ± 2.57 | 85.1 ± 1.54 | 76.3 ± 2.16 | –
2 | CC(C)c1cc2c(cc1O)C1(C)CC(O)C(O)C(C)(C)C1CC2 (stereo not shown) [Compound 3, Medusanthol C] | significantly reduced nitrite levels | – | – | 87.4 ± 2.35 | 82.2 ± 0.96 | 76.4 ± 3.14 | –
3 | O=c1c(O)c(-c2ccc(O)c(O)c2)oc2cc(O)cc(O)c12 [Quercetin, quercetin, reference compound] | – | 11.8 ± 1.5 | – | – | – | – | significantly reduced nitrite levels
4 | CC(=O)OC1CC(C)(C)C2CC3OC(=O)C2(C1)c1cc(O)c(C(C)C)cc1O3 (stereo not shown) [Compound 7, Medusanthol E] | significantly reduced nitrite levels | – | – | 82.74 ± 0.62 | 84.9 ± 1.4 | 81.8 ± 1.24 | –
5 | CC(=O)OC1CC(C)(C)C2CCc3cc(C(C)C)c(O)cc3C2(C(=O)O)C1 (stereo not shown) [Compound 5, Medusanthol D] | No significant effect | – | – | 86.2 ± 4.53 | 86.8 ± 2.52 | 82.9 ± 3.63 | –
6 | CC(C)c1cc2c(cc1O)C1(C)CC(O)C(O)C(C)(C)C1CC2=O (stereo not shown) [Compound 2, Medusanthol B] | significantly reduced nitrite levels | 15.5 ± 7.56 | significantly reduced TNF-α levels | 81.93 ± 0.65 | 85.84 ± 0.85 | 75 ± 3.11 | –
7 | CC(C)c1cc2c(cc1O)[C@@]1(C)C[C@@H](O)CC(C)(C)[C@@H]1CC2=O [Compound 6, 2α-hydroxysugiol] | No significant effect | – | – | 85.7 ± 1.11 | 81.7 ± 1.37 | 66.8 ± 3.61 | –
8 | CC(C)c1cc2c(cc1O)[C@@]1(C)C[C@@H](O)CC(C)(C)[C@@H]1CC2 [Compound 4, salviol] | significantly reduced nitrite levels | – | – | 92.29 ± 0.6 | 85.41 ± 0.82 | 73.6 ± 2.73 | –
